According to patent US5942527A, “Hydrazones, hydrazines, semicarbazones and thiosemicarbazones derived from pyridyl ketones as anticonvulsant drugs and excitatory amino acid antagonists” (K & K Biosciences, Inc., priority 1997, dated 1999):
Structures can show the parent of a compound that is named as a salt.

Assays:
[1] = system: maximal electroshock seizures; assay: Maximal electroshock seizure (MES) test, rat, p.o.; assay type: in vivo, rat (Sprague-Dawley); details: for Class in the MES Test: Table 7, titled MES Test, Rat; for responders at 30 mg/kg: several time points over a 4 hour period, read-out: Percent Protection at 30 mg/kg, in the MES test
Excerpt: The hydrazones, hydrazines and semicarbazones derived from pyridyl ketones and the resulting orally effective anticonvulsant compositions of this invention are useful in the treatment of convulsive disorders. […] A series of hydrazones, hydrazines and semicarbazones derived from pyridyl ketones of this invention has been evaluated for anticonvulsant activity by the intraperitoneal (i.p.) and by the oral (p.o.) route using two standard seizure models in the mouse and in the rat, the maximal electroshock seizure (MES) test and the subcutaneous pentylenetetrazole (Metrazole) seizure threshold (scMet) test. […] In addition, the compounds are evaluated in a new model, the threshold tonic extension (TTE) model. […] Thus active compounds that may be missed in the MES and […] the mouse, i.p., can be detected in the TTE test. The Maximal Electroshock Seizure Test (MES): Maximal electroshock seizures are elicited with a 60 Hz alternating current of 50 mA intensity in mice and about 150 mA intensity in rats (5-7 times that necessary to elicit minimal electroshock seizures), delivered for 0.2 sec via corneal electrodes. A drop of 0.9% saline is instilled in the eye prior to application of the electrodes in order to […]. Abolition of the hind limb tonic extension component of the seizure is defined as protection and results are expressed as number of animals protected/number of animals tested. […] This species will be the subject of the complete anticonvulsant quantification test evaluation as described above, but after oral (gavage) administration of the candidate compound.

[2] = system: maximal electroshock seizures; assay: Maximal electroshock seizure (MES) test, mouse, i.p.; assay type: in vivo, mouse (male Carworth Farms #1); details: for ASP Group Classification, MES Test: mouse, 30, 100 and 300 mg/kg
Excerpt: The hydrazones, hydrazines and semicarbazones derived from pyridyl ketones and the resulting orally effective anticonvulsant compositions of this invention are useful in the treatment of convulsive disorders. […] A series of hydrazones, hydrazines and semicarbazones derived from pyridyl ketones of this invention has been evaluated for anticonvulsant activity by the intraperitoneal (i.p.) and by the oral (p.o.) route using two standard seizure models in the mouse and in the rat, the maximal electroshock seizure (MES) test and the subcutaneous pentylenetetrazole (Metrazole) seizure threshold (scMet) test. […] In addition, the compounds are evaluated in a new model, the threshold tonic extension (TTE) model. […] Thus active compounds that may be missed in the MES and […] the mouse, i.p., can be detected in the TTE test. Based on the screening results, the compounds are placed in one of three categories. […] Class II compounds show anticonvulsant activity at doses greater than 100 mg/kg or show activity at 100 mg/kg which is not reinforced by similar activity at 300 mg/kg. […] The Class I compounds are those which are most promising as anticonvulsants. […] In mice. i.p.: All compounds are emulsified in 0.5% methylcellulose. The solvent has been tested for anticonvulsant and toxic effects and found to introduce no significant bias into the testing of anticonvulsant activity. The compounds are administered intraperitoneally in a volume of 0.01 ml/gm to male Carworth Farms #1 mice weighing about 20 gm. All compounds are tested at least at three dose levels (30, 100 and 300 mg/kg) at 30 minutes and 4 hours after their administration. The Maximal Electroshock Seizure Test (MES): Maximal electroshock seizures are elicited with a 60 Hz alternating current of 50 mA intensity in mice and about 150 mA intensity in rats (5-7 times that necessary to elicit minimal electroshock seizures), delivered for 0.2 sec via corneal electrodes. A drop of 0.9% saline is instilled in the eye prior to application of the electrodes in order to […]. Abolition of the hind limb tonic extension component of the seizure is defined as protection and results are expressed as number of animals protected/number of animals tested. Anticonvulsant Quantification in Mice, i.p.: The ED50 values are determined in the MES, scMet and rotorod ataxia test.

TTE seizure = assay: Threshold tonic extension (TTE) test, mouse, i.p.; assay type: in vivo; details: mouse, 100 mg/kg
Excerpt: The hydrazones, hydrazines and semicarbazones derived from pyridyl ketones and the resulting orally effective anticonvulsant compositions of this invention are useful in the treatment of convulsive disorders. […] A series of hydrazones, hydrazines and semicarbazones derived from pyridyl ketones of this invention has been evaluated for anticonvulsant activity by the intraperitoneal (i.p.) and by the oral (p.o.) route using two standard seizure models in the mouse and in the rat, the maximal electroshock seizure (MES) test and the subcutaneous pentylenetetrazole (Metrazole) seizure threshold (scMet) test. […] In addition, the compounds are evaluated in a new model, the threshold tonic extension (TTE) model. […] Thus active compounds that may be missed in the MES and scMet tests in the mouse, i.p., can be detected in the TTE test.
The Threshold Tonic Extension (TTE) Test: The TTE test (Piredda et al., 1985) is a clinically nonselective, electroconvulsive seizure model that identifies compounds that raise seizure threshold as well as those that prevent seizure spread. […] The test is similar to the MES screen but uses a lower level of electrical current. The lower current makes the TTE test more sensitive but less discriminate than the MES screen. This ability makes the model attractive because it allows us to identify compounds that may be missed by our standard identification screen.
Twenty mice are pretreated intraperitoneally with 100 mg/kg of the test substance. At several time intervals (1/4, 1/2, 1, 2, and 4 hours) post treatment with the test drug, four mice at each time point are challenged with 12.5 mA of electrical current for 0.2 seconds via corneal electrodes. This produces a TTE seizure in the animals (Woodbury and Davenport, 1952).
For each time interval results are expressed as a ratio of the number of animals protected over the number tested. […] The positives may represent compounds acting by novel mechanisms.

in vivo = assay: in vivo; set-up: species or system mouse (male Carworth Farms #1); details: mouse, ip
Experimental: Neurotoxicity is determined by the rotorod ataxia test in mice and by the positional sense test and gait and stance test in the rat.
Neurotoxicity is evaluated in mice by the rotorod ataxia test. The animal is placed on a wooden rod of 1 and 1/8" diameter rotating at 6 rpm. Normal mice can remain on a rod rotating at this speed indefinitely.
Anticonvulsant Quantification in Mice, i.p.: The ED50 values are determined in the MES, scMet and rotorod ataxia test.

CC(Nc1cccc(Cl)c1)c1cccnc1 (centres unmarked) [AAP 3-Pyridyl CH3 3-Cl, reference compound]
Class in the MES Test [1]: II (show anticonvulsant activity at doses greater than 100 mg/kg or show activity at 100 mg/kg which is not reinforced by similar activity at 300 mg/kg)

CC(Nc1ccc(Cl)cc1)c1cccnc1 (centres unmarked) [AAP 3-Pyridyl CH3 4-Cl, reference compound]
protection at 50 mg/kg, MES Test ([1]; rat, 50 mg/kg, Table 7): 0-75%

CC(Nc1ccc(Cl)c(Cl)c1)c1ccncc1 (centres unmarked) [AAP 4-Pyridyl CH3 3,4-diCl, reference compound]
ED50 ([1]; po, rat, Table 7, read-out: Anticonvulsant Efficacy (ED50, mg/kg) in the MES Test): 29.7 mg/kg

Clc1ccc(NC(c2ccccc2)c2ccncc2)cc1 (centres unmarked) [AAP 4-Pyridyl Ph 4-Cl, reference compound]
Class in the MES Test [1]: III (Those failing to demonstrate anticonvulsant activity at doses up to 300 mg/kg are considered inactive)

CC(=NNc1ccc(Cl)cc1)c1ccncc1 [Compound 2, Methyl 4-pyridyl ketone 4-chlorophenyl hydrazone]
ASP Group Classification, MES Test [2]: I (They demonstrate anticonvulsant activity in either the MES test or the scMet test, or both at doses of 100 mg/kg or 30 mg/kg without signs of neurological deficit and thus have an estimated protective index of greater than 1) | responders at 30 mg/kg ([1]; po, rat, 30 mg/kg): 50 to 75%

CC(=NNc1cccc(Cl)c1)c1cccnc1 [Compound 6, Methyl 3-pyridyl ketone 3-chlorophenylhydrazone]
ASP Group Classification, MES Test [2]: I (They demonstrate anticonvulsant activity in either the MES test or the scMet test, or both at doses of 100 mg/kg or 30 mg/kg without signs of neurological deficit and thus have an estimated protective index of greater than 1) | Class in the MES Test [1]: I (They demonstrate anticonvulsant activity in either the MES test or the scMet test, or both at doses of 100 mg/kg or 30 mg/kg without signs of neurological deficit and thus have an estimated protective index of greater than 1)

CCC(=NNc1ccc(Cl)c(Cl)c1)c1ccncc1 [Compound 7, Ethyl 4-pyridyl ketone 3,4-dichlorophenylhydrazone]
ASP Group Classification, MES Test [2]: III (Those failing to demonstrate anticonvulsant activity at doses up to 300 mg/kg are considered inactive) | ASP Group Classification, TTE Test (TTE seizure): I (They demonstrate anticonvulsant activity in either the MES test or the scMet test, or both at doses of 100 mg/kg or 30 mg/kg without signs of neurological deficit and thus have an estimated protective index of greater than 1) | TTE Test (Percent Protection) (TTE seizure): 25%

CCC(=NNc1ccc(Cl)cc1)c1ccncc1 [Compound 8, Ethyl 4-pyridyl ketone 4-chlorophenylhydrazone]
ASP Group Classification, MES Test [2]: I (They demonstrate anticonvulsant activity in either the MES test or the scMet test, or both at doses of 100 mg/kg or 30 mg/kg without signs of neurological deficit and thus have an estimated protective index of greater than 1)

Clc1ccc(NN=C(c2ccccc2)c2ccncc2)cc1Cl [Compound 9, Phenyl 4-pyridyl ketone 3,4-dichlorophenylhydrazone]
ASP Group Classification, MES Test [2]: III (Those failing to demonstrate anticonvulsant activity at doses up to 300 mg/kg are considered inactive) | ASP Group Classification, TTE Test (TTE seizure): I (They demonstrate anticonvulsant activity in either the MES test or the scMet test, or both at doses of 100 mg/kg or 30 mg/kg without signs of neurological deficit and thus have an estimated protective index of greater than 1) | TTE Test (Percent Protection) (TTE seizure): 25%

Clc1ccc(NN=C(c2ccccc2)c2ccncc2)cc1 [Compound 10, Phenyl 4-pyridyl ketone 4-chlorophenylhydrazone]
ASP Group Classification, MES Test [2]: I (They demonstrate anticonvulsant activity in either the MES test or the scMet test, or both at doses of 100 mg/kg or 30 mg/kg without signs of neurological deficit and thus have an estimated protective index of greater than 1) | Class in the MES Test [1]: I (They demonstrate anticonvulsant activity in either the MES test or the scMet test, or both at doses of 100 mg/kg or 30 mg/kg without signs of neurological deficit and thus have an estimated protective index of greater than 1)

Clc1cccc(NN=C(c2ccccc2)c2ccncc2)c1 [Compound 11, Phenyl 4-pyridyl ketone 3-chlorophenylhydrazone]
ASP Group Classification, MES Test [2]: III (Those failing to demonstrate anticonvulsant activity at doses up to 300 mg/kg are considered inactive) | ASP Group Classification, TTE Test (TTE seizure): I (They demonstrate anticonvulsant activity in either the MES test or the scMet test, or both at doses of 100 mg/kg or 30 mg/kg without signs of neurological deficit and thus have an estimated protective index of greater than 1)

CC(NNc1ccc(Cl)c(Cl)c1)c1cccnc1 (centres unmarked) [Compound 12, 1-(3,4-dichlorophenyl)-2-[1-(3-pyridyl)]ethylhydrazine dihydrochloride]
ASP Group Classification, MES Test [2]: I (They demonstrate anticonvulsant activity in either the MES test or the scMet test, or both at doses of 100 mg/kg or 30 mg/kg without signs of neurological deficit and thus have an estimated protective index of greater than 1) | responders at 30 mg/kg ([1]; po, rat, 30 mg/kg): 25 to 75%

CC(=NNC(N)=O)c1ccncc1 [Compound 13, Methyl 4-pyridyl ketone semicarbazone]
ASP Group Classification, MES Test [2]: I (They demonstrate anticonvulsant activity in either the MES test or the scMet test, or both at doses of 100 mg/kg or 30 mg/kg without signs of neurological deficit and thus have an estimated protective index of greater than 1)

CC(=NNC(N)=O)c1cccnc1 [Compound 14, Methyl 3-pyridyl ketone semicarbazone]
ASP Group Classification, MES Test [2]: II (show anticonvulsant activity at doses greater than 100 mg/kg or show activity at 100 mg/kg which is not reinforced by similar activity at 300 mg/kg)

NC(=O)NN=C(c1ccccc1)c1cccnc1 [Compound 16, Phenyl 3-pyridyl ketone semicarbazone]
ED50 ([2]; Mus musculus, ip, mice, Table 5): 21.8 mg/kg | P.I., TD50/ED50, MES ([2]; mice, Table 5): 3.87 | ASP Group Classification, MES Test [2]: I (They demonstrate anticonvulsant activity in either the MES test or the scMet test, or both at doses of 100 mg/kg or 30 mg/kg without signs of neurological deficit and thus have an estimated protective index of greater than 1) | responders at 30 mg/kg ([1]; po, rat, 30 mg/kg): 75 to 100% | protection at 30 mg/kg, MES Test ([1]; rat, 30 mg/kg, Table 7): 75-100% | TD50 (in vivo): 84.6 mg/kg
